Test results taken from US12552752B2, “Atropisomers of pyridazinone derivatives as herbicides” (FMC Corporation, priority 2020, dated 2026).

How the values were obtained:
Assay type in all cases: in vivo
corn (CPI, Zea mays) = experiment: Test A postemergence, corn; conditions: POST, 0 to 100 scale, approximately 10 d
From the text: (§1) Seeds of plant species selected from barnyardgrass (BYG, Echinochloa crus-galli), kochia (KOC, Kochia scoparia), ragweed (common ragweed, Ambrosia elatior), ryegrass, Italian (RGI, Lolium multiflorum), foxtail, giant (FTI, Setaria faberii), foxtail, green (Setaria viridis) and pigweed (PWR, Amaranthus retroflexus) were planted into a blend of loam soil and sand and treated preemergence with a directed soil spray using test chemicals formulated in a non-phytotoxic solvent mixture which included a surfactant. At the same time, plants selected from these weed species and also wheat (WWT, Triticum aestivum), corn (CPI, Zea mays), blackgrass (BKG, Alopecurus myosuroides) and galium (GAL, catchweed bedstraw, Galium aparine) were planted in pots containing the same blend of loam soil and sand and treated with postemergence applications of test chemicals formulated in the same manner Plants ranged in height from 2 to 10 cm and were in the one- to two-leaf stage for the postemergence treatment. Treated plants and untreated controls were maintained in a greenhouse for approximately 10 d, after which time all treated plants were compared to untreated controls and visually evaluated for injury. Plant response ratings, summarized in Tables 1-4, are based on a 0 to 100 scale where 0 is no effect and 100 is complete control. A dash (−) response means no test result. The ratings are followed by a letter representing the symptomology where S is Albinism, C is Chlorosis, G is Growth Inhibition and E is Emergence.

[1] = test system: wheat (WWT, Triticum aestivum); experiment: Test A postemergence, wheat; conditions: POST, 0 to 100 scale, approximately 10 d
From the text: as §1

[2] = test system: galium (GAL, catchweed bedstraw, Galium aparine); experiment: Test A postemergence, galium; conditions: POST, 0 to 100 scale, approximately 10 d
From the text: as §1

[3] = test system: kochia (KOC, Kochia scoparia); experiment: Test A postemergence, kochia; conditions: POST, 0 to 100 scale, approximately 10 d
From the text: as §1

[4] = test system: pigweed (PWR, Amaranthus retroflexus); experiment: Test A postemergence, pigweed; conditions: POST, 0 to 100 scale, approximately 10 d
From the text: as §1

[5] = test system: ragweed (common ragweed, Ambrosia elatior); experiment: Test A postemergence, ragweed; conditions: POST, 0 to 100 scale, approximately 10 d
From the text: as §1

[6] = test system: blackgrass (BKG, Alopecurus myosuroides); experiment: Test A postemergence, blackgrass; conditions: POST, 0 to 100 scale, approximately 10 d
From the text: as §1

[7] = test system: ryegrass, Italian (RGI, Lolium multiflorum); experiment: Test A postemergence, Italian ryegrass; conditions: POST, 0 to 100 scale, approximately 10 d
From the text: as §1

[8] = test system: barnyardgrass (BYG, Echinochloa crus-galli); experiment: Test A postemergence, barnyardgrass; conditions: POST, 0 to 100 scale, approximately 10 d
From the text: as §1

[9] = test system: foxtail, giant (FTI, Setaria faberii); experiment: Test A postemergence, giant foxtail; conditions: POST, 0 to 100 scale, approximately 10 d
From the text: as §1

[10] = test system: kochia (KOC, Kochia scoparia); experiment: Test A preemergence, kochia; conditions: PRE, 0 to 100 scale, approximately 10 d
From the text: as §1

[11] = test system: ryegrass, Italian (RGI, Lolium multiflorum); experiment: Test A preemergence, Italian ryegrass; conditions: PRE, 0 to 100 scale, approximately 10 d
From the text: as §1

[12] = test system: barnyardgrass (BYG, Echinochloa crus-galli); experiment: Test A preemergence, barnyardgrass; conditions: PRE, 0 to 100 scale, approximately 10 d
From the text: as §1

[13] = test system: foxtail, giant (FTI, Setaria faberii); experiment: Test A preemergence, giant foxtail; conditions: PRE, 0 to 100 scale, approximately 10 d
From the text: as §1

[14] = test system: pigweed (PWR, Amaranthus retroflexus); experiment: Test A preemergence, pigweed; conditions: PRE, 0 to 100 scale, approximately 10 d
From the text: as §1

[15] = 31 g ai/ha, listed as drawing 26
[16] = 125 g ai/ha, listed as drawing 26
[17] = 31 g ai/ha, listed as drawing 25
[18] = 125 g ai/ha, listed as drawing 25
[19] = 125 g ai/ha, listed as drawing 27
[20] = 31 g ai/ha, listed as drawing 27

Cc1ccc2ccc(C)c(-c3c(O)c(Cl)nn(C)c3=O)c2c1 (single isomer, unassigned) [2 (Enantiomer 2B)]
Plant response rating CPI (corn (CPI, Zea mays); [15]): 0
Plant response rating CPI (corn (CPI, Zea mays); 125 g ai/ha): 30 G
Plant response rating WWT [1, 15]: 0
Plant response rating WWT [1, 16]: 30 S
Plant response rating GAL [2, 15]: 100 C
Plant response rating GAL [2, 16]: 90 C
Plant response rating KOC ([3]; 31 g ai/ha): 60 S
Plant response rating KOC [3, 16]: 70 S
Plant response rating PWR ([4]; 125 g ai/ha): 100 C 100 C 100 C 100 C
Plant response rating RWC [5, 15]: 100 C 100 C
Plant response rating RWC [5, 16]: 100 C 100 C
Plant response rating BKG [6, 15]: 30 C
Plant response rating BKG [6, 16]: 40 S
Plant response rating RGI [7, 15]: 100 C
Plant response rating RGI [7, 16]: 100 C
Plant response rating BYG [8, 15]: 80 C
Plant response rating BYG [8, 16]: 90 C
Plant response rating FTI [9, 15]: 80 S
Plant response rating FTI [9, 16]: 90 S
Plant response rating KOC [10, 15]: 0
Plant response rating KOC [10, 16]: 90 C
Plant response rating RGI [11, 15]: 80 S
Plant response rating RGI [11, 16]: 100 S
Plant response rating BYG [12, 15]: 90 S
Plant response rating BYG [12, 16]: 100 C
Plant response rating FTI [13, 15]: 100 C
Plant response rating FTI [13, 16]: 100 C

Cc1ccc2ccc(C)c(-c3c(O)c(Cl)nn(C)c3=O)c2c1 (single isomer, unassigned) [2 (Enantiomer 2A)]
Plant response rating CPI (corn (CPI, Zea mays); [17]): 10 G
Plant response rating CPI (corn (CPI, Zea mays); 125 g ai/ha): 30 G
Plant response rating WWT [1, 17]: 0
Plant response rating WWT [1, 18]: 0
Plant response rating GAL [2, 17]: 100 C 100 C
Plant response rating GAL [2, 18]: 100 C 100 C
Plant response rating KOC ([3]; 31 g ai/ha): 60 S
Plant response rating KOC [3, 18]: 80 S
Plant response rating PWR ([4]; 31 g ai/ha): 100 C 100 C 100 C 100 C
Plant response rating PWR ([4]; 125 g ai/ha): 100 C 100 C 100 C 100 C
Plant response rating RWC [5, 17]: 90 S 90 S
Plant response rating RWC [5, 18]: 90 S 90 S
Plant response rating BKG [6, 17]: 0
Plant response rating BKG [6, 18]: 20 S
Plant response rating RGI [7, 17]: 30 S
Plant response rating RGI [7, 18]: 40 S
Plant response rating BYG [8, 17]: 20 C
Plant response rating BYG [8, 18]: 30 C
Plant response rating FTI [9, 17]: 30 S
Plant response rating FTI [9, 18]: 60 S
Plant response rating KOC [10, 17]: 10 C
Plant response rating KOC [10, 18]: 80 S
Plant response rating PWR ([14]; 31 g ai/ha): 100 C 100 C 100 C 100 C
Plant response rating PWR ([14]; 125 g ai/ha): 100 C 100 C 100 C 100 C
Plant response rating RGI [11, 17]: 20 G
Plant response rating RGI [11, 18]: 20 G
Plant response rating BYG [12, 17]: 0
Plant response rating BYG [12, 18]: 50 G
Plant response rating FTI [13, 17]: 20 S
Plant response rating FTI [13, 18]: 40 S

Cc1ccc2ccccc2c1-c1c(O)c(Cl)nn(C)c1=O (racemic) [3 (Enantiomer 3A)]
Plant response rating WWT ([1]; 31 g ai/ha): 0
Plant response rating GAL [2, 19]: 100 C
Plant response rating KOC ([3]; 125 g ai/ha): 90 S
Plant response rating PWR ([4]; 125 g ai/ha): 100 C
Plant response rating RWC [5, 19]: 100 C
Plant response rating FTI [9, 20]: 20 S
Plant response rating RGI [11, 20]: 10 S
Plant response rating BYG [12, 19]: 50 S
